Reference: PMC8945229, “Development and Biological Characterization of a Novel Selective TrkA Agonist with Neuroprotective Properties against Amyloid Toxicity” (Biomedicines, 2022)

What was measured:
p75^NTR = target: T1, p75^NTR (Homo sapiens, UniProt P08138); experiment: p75NTR activation in HEK cells transfected with p75NTR and Traf6 (immunoprecipitation); assay type: cell-based; details: 500 nM, 30′
T1 construct: expressed in transfected cells; host or cells: HEK293T (transient, lipofectamine)
Protocol: PC12 and HEK293T cells were obtained from LGC Promochem GmbH (Teddington, UK) and cultured under the conditions specified by the manufacturer. NIH3T3 cells were stably transfected with human TrkB plasmid. PC12 cells were grown in DMEM medium (11965084, Gibco, Grand Island, NY, USA) containing 10% Horse Serum (16050122, Gibco, Grand Island, NY, USA), 5% Fetal Bovine Serum (10270106, Gibco, Grand Island, NY, USA), 100 units/mL Penicillin and 0.1 mg/mL Streptomycin (15140122, Gibco, Grand Island, NY, USA) at 5% CO2 and 37 °C. Cells were used between passages 5–20. HEK293T and NIH3T3 cells were grown in the same medium as PC12 cells supplemented with 10% Fetal Bovine Serum and lacking Horse Serum. For transient transfection of HEK293T cells, lipofectamine was used and cells were transfected with human p75^NTR and Traf6 plasmids. To determine the intracellular activity of endogenous secretases, we tagged (tGFP) a truncated mutant (Tm) of APP containing the original amino acids sequence from M516 to N773. This Tm conserves the secretases cleavage sites, clathrin binding site, tau protein binding site, collagen binding site and some glycosylation sites critical for protein localization and intracellular trafficking. The cDNA of the TmAPP gene was amplified by PCR and subcloned into pturbo-GFP vector. […]

γ-secretase = γ-secretase activity / APP processing in U2OS APP-C99-tGFP cells; assay type: cell-based; details: 6 h
Protocol: PC12 and HEK293T cells were obtained from LGC Promochem GmbH (Teddington, UK) and cultured under the conditions specified by the manufacturer. NIH3T3 cells were stably transfected with human TrkB plasmid. PC12 cells were grown in DMEM medium (11965084, Gibco, Grand Island, NY, USA) containing 10% Horse Serum (16050122, Gibco, Grand Island, NY, USA), 5% Fetal Bovine Serum (10270106, Gibco, Grand Island, NY, USA), 100 units/mL Penicillin and 0.1 mg/mL Streptomycin (15140122, Gibco, Grand Island, NY, USA) at 5% CO2 and 37 °C. Cells were used between passages 5–20. HEK293T and NIH3T3 cells were grown in the same medium as PC12 cells supplemented with 10% Fetal Bovine Serum and lacking Horse Serum. For transient transfection of HEK293T cells, lipofectamine was used and cells were transfected with human p75^NTR and Traf6 plasmids. To determine the intracellular activity of endogenous secretases, we tagged (tGFP) a truncated mutant (Tm) of APP containing the original amino acids sequence from M516 to N773. This Tm conserves the secretases cleavage sites, clathrin binding site, tau protein binding site, collagen binding site and some glycosylation sites critical for protein localization and intracellular trafficking. The cDNA of the TmAPP gene was amplified by PCR and subcloned into pturbo-GFP vector. The construction was transfected into U2OS cells (ATCC Cat Number HTB-96) using Lipofectamine LTX (Thermo Fisher Scientific, Waltham, MA, USA). After 48 h, individual cells were plated in MTP96 plates using F.SIGHT (CYTENA GmbH, Freiburg, Germany), and cultured in complete medium containing 250 μg/mL G418 for selection. The selection medium was changed every two to three days. The cells were allowed to grow for 3 to 4 weeks, after which clones were isolated for further analysis. Resistant clones were checked by RT-PCR and epifluorescence microscopy.
The Alzheimer’s Disease (AD) phenotype is partly attributed to the toxic effects caused by oligmeric Aβ, which results in reduced neuronal trophic support, caused by deregulation of neurotrophic signaling. It is therefore reasonable that a small molecule that can selectively activate TrkA signaling and promote neuronal survival could alleviate the detrimental effects caused by toxic Aβ oligomers, especially during the early phases of the disease or modulate APP misprocessing and therefore reduce the production of the toxic Aβ. The U2OS stably expressing APP-C99-tGFP cell line was used in order to monitor γ-secretase activity, the process responsible for Aβ production from APP. The assay achieves this by measuring the levels of fluorescent APP-C99 construct produced by β-secretase activity. When γ-secretase is active, the construct is cleaved, leading to Aβ production. […] Therefore, higher fluorescence levels correspond to decreased γ-secretase activity and Aβ aggregate formation by extension. […] In addition, in order to investigate whether ENT-A013 can protect cells against Aβ-induced toxicity we isolated neurons from the hippocampus of E17.5 mouse embryos, a brain area that is heavily affected in AD. Neurons were left in culture for 16–18 DIV and then were treated with oligomeric Aβ and ENT-A013 for 48 h. Subsequently, cells were fixed and cell death was assessed using TUNEL assay.
(A,B) Primary hippocampal neurons were treated for 48 h with oligomeric Aβ in the presence of ENT-A013 and TUNEL assay was used to quantify cell death. Representative images from 3 independent experiments. Data are shown as ±SEM. One-way ANOVA, Tukey’s Test correction: ** p < 0.01; *** p < 0.001. (C) Aggregate formation on untreated cells, treated with DAPT inhibitor of γ-secretase or with compound ENT-A013. […] Aggregate formation was quantified with a BD Pathway 855 High-Content Bioimager and Attonvision software.

T1 sequence (P08138 29-427): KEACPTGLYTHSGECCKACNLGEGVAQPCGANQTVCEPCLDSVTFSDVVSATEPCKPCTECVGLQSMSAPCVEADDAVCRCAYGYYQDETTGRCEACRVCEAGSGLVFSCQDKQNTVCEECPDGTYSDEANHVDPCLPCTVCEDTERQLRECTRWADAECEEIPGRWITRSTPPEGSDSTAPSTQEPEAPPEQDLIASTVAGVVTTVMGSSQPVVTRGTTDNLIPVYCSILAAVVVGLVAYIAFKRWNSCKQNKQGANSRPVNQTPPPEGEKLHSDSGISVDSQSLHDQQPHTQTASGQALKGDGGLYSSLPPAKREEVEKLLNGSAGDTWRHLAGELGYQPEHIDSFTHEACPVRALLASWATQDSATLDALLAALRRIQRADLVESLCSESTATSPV

## CC12CCC(O)CC1=CCC1C2CCC2(C)C1CCC21CC1C=CBr [ENT-A013, (2′R,3S,17S)-2′-(2-Bromovinyl)-5-Androstene-17,1′-Cyclopropan-3-ol]
p75^NTR
  p75NTR activation (in words): does not activate
γ-secretase; 10 μM
  increase in APP spot levels compared to DAPT: 166.3%
γ-secretase; 30 μM
  increase in APP spot levels compared to DAPT: 246.4%
γ-secretase; 100 μM
  increase in APP spot levels compared to DAPT: 243.9%
γ-secretase; 300 μM
  increase in APP spot levels compared to DAPT: 239.9%
γ-secretase; Homo sapiens, U2OS, 100 nM to 300 μM, read-out: IC50 (γ-secretase activity, aggregate formation)
  IC50: 93 µM
